Test results published in patent publication US20100172854A1, “ANTIBACTERIAL FORMULATIONS” (priority 2007, published 2010).
≈ marks a conversion by molar mass, not a printed value.

How the values were obtained:
Format in all cases: cell-based
[1] = system: Staphylococcus aureus ATCC 29213; assay: MBC assay; conditions: S. aureus ATCC 29213; for MBC: Staphylococcus aureus, ATCC29213
Protocol: (§1) The staphylococci were cultured and maintained on Mueller-Hinton Medium (agar and broth) at pH 7.2; cultures were incubated aerobically at 37° C. for 19-20 hours.
(§2) This assay, normally carried out after an MIC assay, determines the minimum concentration of a compound that is lethal to the micro-organism being tested.
(§3) These samples were then individually sub-cultured on antibiotic-free agar medium, under the incubation conditions described above. Following incubation they were examined visually for microbial growth.

[2] = system: Propionibacterium acnes NCTC 737; assay: MBC assay; conditions: P. acnes NCTC 737; for MBC: Cutibacterium acnes, NCTC737
Protocol: (§4) The propionibacteria were cultured and maintained on Wilkins-Chalgren Anaerobe Medium (agar and broth) at pH 6.0; all cultures were incubated anaerobically at 37° C. for 72 hours.
as §2, §3

[3] = system: Staphylococcus aureus ATCC 29213; assay: MIC assay; conditions: ATCC29213, S. aureus ATCC 29213
Protocol: as §1
(§5) This is a standard international method for quantitatively assessing the antimicrobial activity of a compound in a liquid medium. The method used a sterile 96-well microtitre plate, capable of holding about 200 μl of liquid per well. The wells contained liquid culture medium and ranges of decreasing concentrations of the relevant test compound in doubling dilutions (e.g. 1000, 500, 250, 125 . . . μg/ml, etc. down to 0.49 μg/ml). The culture media were as described above.
(§6) The wells were inoculated with a liquid suspension of freshly grown micro-organism and incubated under the conditions described above. After incubation, the microtitre plate was examined visually (with the aid of a light box) for cloudiness in each well, which would indicate microbial growth. The MIC value was recorded as the lowest concentration of test compound required to inhibit microbial growth, i.e. the lowest concentration for which the liquid in the well remained clear.
(§7) The assays included both negative (culture medium with no micro-organisms) and positive (culture medium plus diluting solvent plus micro-organism) controls.

[4] = system: Propionibacterium acnes NCTC 737; assay: MIC assay; conditions: Cutibacterium acnes, NCTC737; P. acnes NCTC 737
Protocol: as §4, §5, §6, §7

[5] = system: Clostridium sporogenes ATCC 3584; assay: MBC assay
Protocol: as §2, §3

[6] = system: Prevotella nigrescens ATCC 33563; assay: MBC assay
Protocol: as §2, §3

[7] = system: Actinomyces naeslundii ATCC 12104; assay: MBC assay
Protocol: as §2, §3

[8] = system: Clostridium difficile ATCC 7000057; assay: MBC assay
Protocol: as §2, §3

[9] = system: Gardnerella vaginalis ATCC 14018; assay: MBC assay
Protocol: as §2, §3

[10] = system: Listeria monocytogenes ATCC 15313; assay: MBC assay
Protocol: as §2, §3

[11] = system: Streptococcus sobrinus ATCC 33478; assay: MBC assay
Protocol: as §2, §3

[12] = system: Bacillus cereus ATCC 11778; assay: MBC assay
Protocol: as §2, §3

[13] = system: Clostridium sporogenes ATCC 3584; assay: MIC assay; conditions: ATCC3584
Protocol: as §5, §6, §7

[14] = system: Prevotella nigrescens ATCC 33563; assay: MIC assay; conditions: ATCC33563
Protocol: as §5, §6, §7

[15] = system: Actinomyces naeslundii ATCC 12104; assay: MIC assay; conditions: ATCC12104, read-out: MIC
Protocol: as §5, §6, §7

[16] = system: Enterococcus faecalis ATCC 29212; assay: MIC assay; conditions: E. faecalis ATCC 29212
Protocol: as §5, §6, §7

[17] = system: Clostridium difficile ATCC 7000057; assay: MIC assay; conditions: Clostridioides difficile, ATCC7000057
Protocol: as §5, §6, §7

[18] = system: Corynebacterium mucifaciens ATCC 700355; assay: MIC assay; conditions: C. mucifaciens ATCC 700355
Protocol: as §5, §6, §7

[19] = system: Streptococcus pyogenes ATCC 12344; assay: MIC assay; conditions: S. pyogenes ATCC 12344
Protocol: as §5, §6, §7

[20] = system: Gardnerella vaginalis ATCC 14018; assay: MIC assay; conditions: ATCC14018
Protocol: as §5, §6, §7

[21] = system: Listeria monocytogenes ATCC 15313; assay: MIC assay; conditions: ATCC15313, read-out: MIC
Protocol: as §5, §6, §7

[22] = system: Streptococcus sobrinus ATCC 33478; assay: MIC assay; conditions: ATCC33478
Protocol: as §5, §6, §7

[23] = system: Bacillus cereus ATCC 11778; assay: MIC assay; conditions: ATCC11778, read-out: MIC
Protocol: as §5, §6, §7

[24] = system: Streptococcus mutans ATCC 35668; assay: MIC assay; conditions: ATCC35668
Protocol: (§8) The S. mutans strains were cultured and maintained on Wilkins-Chalgren Anaerobe Medium (agar and broth) at pH 7.0 supplemented with 1 g/L glucose; all cultures were incubated at 37° C. for 48 h in an atmosphere containing 5% CO2.
as §5, §6, §7

[25] = system: Streptococcus mutans ATCC 25175; assay: MIC assay; conditions: ATCC25175
Protocol: as §8, §5, §6, §7

[26] = system: Porphyromonas gingivalis ATCC 53978; assay: MIC assay; conditions: ATCC53978
Protocol: (§9) The P. gingivalis strains were cultured and maintained on Wilkins-Chalgren Anaerobe Medium (agar and broth) at pH 7.0; all cultures were incubated anaerobically at 37° C. for 5-7 days.
as §5, §6, §7

[27] = system: Porphyromonas gingivalis NCTC 11834; assay: MIC assay; conditions: NCTC11834
Protocol: as §9, §5, §6, §7

[28] = system: Porphyromonas gingivalis ATCC BAA-308; assay: MIC assay; conditions: ATCCBAA308
Protocol: as §9, §5, §6, §7

[29] = system: Streptococcus mutans ATCC 35668; assay: MBC assay
Protocol: as §8, §2, §3

[30] = system: Streptococcus mutans ATCC 25175; assay: MBC assay
Protocol: as §8, §2, §3

[31] = system: Porphyromonas gingivalis ATCC 53978; assay: MBC assay
Protocol: as §9, §2, §3

[32] = system: Porphyromonas gingivalis NCTC 11834; assay: MBC assay
Protocol: as §9, §2, §3

[33] = system: Porphyromonas gingivalis ATCC BAA-308; assay: MBC assay
Protocol: as §9, §2, §3

## CC(c1cc(C(C)(C)C)cc(C(C)(C)C)c1O)c1cc(C(C)(C)C)cc(C(C)(C)C)c1O [2,2′-ethylidene-bis(4,6-di-tert-butylphenol), reference compound]
[1]
  MBC: > 250 µg/mL
[2]
  MBC: > 250 µg/mL
[3]
  MIC: > 250 µg/mL
[4]
  MIC: > 250 µg/mL

## CCc1cc(Cc2cc(CC)cc(C(C)(C)C)c2O)c(O)c(C(C)(C)C)c1 [AO 425, 2,2′-methylene-bis(4-ethyl-6-tert-butylphenol)]
[1]
  MIC/MBC Ratio: 0.125
  MBC: 62.5 µg/mL (≈ 170 µM)
[5]
  MIC/MBC Ratio: 0.5
[5]; ATCC3584
  MBC: 7.8 µg/mL (≈ 21.2 µM)
[6]
  MIC/MBC Ratio: <1
[6]; ATCC33563
  MBC: > 15.6 µg/mL
[7]
  MIC/MBC Ratio: 0.25
[7]; ATCC12104
  MBC: 3.9 µg/mL (≈ 10.6 µM)
[8]
  MIC/MBC Ratio: 1
[8]; Clostridioides difficile, ATCC7000057
  MBC: 7.8 µg/mL (≈ 21.2 µM)
[9]
  MIC/MBC Ratio: 0.5
[9]; ATCC14018
  MBC: 31.2 µg/mL (≈ 84.8 µM)
[10]
  MIC/MBC Ratio: 0.125
[10]; ATCC15313
  MBC: 7.8 µg/mL (≈ 21.2 µM)
[11]
  MIC/MBC Ratio: 0.5
[11]; ATCC33478
  MBC: 62.5 µg/mL (≈ 170 µM)
[12]
  MIC/MBC Ratio: 0.5
[12]; ATCC11778
  MBC: 3.9 µg/mL (≈ 10.6 µM)
[13]
  MIC: 3.9 µg/mL (≈ 10.6 µM)
[14]
  MIC: 15.6 µg/mL (≈ 42.3 µM)
[15]
  MIC: 0.98 µg/mL (≈ 2.66 µM)
[16]
  activity compared with AO 2246: significantly lower activity
[17]
  MIC: 7.8 µg/mL (≈ 21.2 µM)
[18]
  activity compared with AO 2246: significantly lower activity
[19]
  activity compared with AO 2246: significantly lower activity
[20]
  MIC: 15.6 µg/mL (≈ 42.3 µM)
[21]
  MIC: 0.98 µg/mL (≈ 2.66 µM)
[22]
  MIC: 31.2 µg/mL (≈ 84.8 µM)
[23]
  MIC: 1.95 µg/mL (≈ 5.29 µM)
[24]
  MIC: 7.8 µg/mL (≈ 21.2 µM)
[25]
  MIC: 15.6 µg/mL (≈ 42.3 µM)
[2]
  MBC: 31.2 µg/mL (≈ 84.8 µM)
  MIC/MBC Ratio: 0.25
[3]
  MIC: 7.8 µg/mL (≈ 21.2 µM)
[26]
  MIC: 0.98 µg/mL (≈ 2.66 µM)
[27]
  MIC: 1.95 µg/mL (≈ 5.29 µM)
[28]
  MIC: 1.95 µg/mL (≈ 5.29 µM)
[4]
  MIC: 7.8 µg/mL (≈ 21.2 µM)
[29]
  MIC/MBC Ratio: <0.03
[29]; ATCC35668
  MBC: > 250 µg/mL
[30]
  MIC/MBC Ratio: 0.25
[30]; ATCC25175
  MBC: 62.5 µg/mL (≈ 170 µM)
[31]
  MIC/MBC Ratio: 1
[31]; ATCC53978, read-out: MBC
  MBC: 0.98 µg/mL (≈ 2.66 µM)
[32]
  MIC/MBC Ratio: 1
[32]; NCTC11834
  MBC: 1.95 µg/mL (≈ 5.29 µM)
[33]
  MIC/MBC Ratio: 0.5
[33]; ATCCBAA308
  MBC: 3.9 µg/mL (≈ 10.6 µM)

## CC(C)(C)c1cc(Cc2cc(C(C)(C)C)c(O)c(C(C)(C)C)c2)cc(C(C)(C)C)c1O [4,4′-methylenebis(2,6-di-tert-butylphenol), reference compound]
[1]
  MBC: > 250 µg/mL
[2]
  MBC: > 250 µg/mL
[3]
  MIC: > 250 µg/mL
[4]
  MIC: > 250 µg/mL
